Data: ChEMBL document CHEMBL4840338, “Cudraflavone C from Artocarpus hirsutus as a Promising Inhibitor of Pathogenic, Multidrug-Resistant S. aureus, Persisters, and Biofilms: A New Insight into a Rational Explanation of Traditional Wisdom” (J Nat Prod, 2021)
≈ marks a conversion by molar mass, not a printed value. Calls of active or inactive are those of the source. The rule behind the calls is not given here.

Legend:
Staphylococcus aureus [1] = assay: microbe, parasite or virus in culture; conditions: ATCC 29213
Description: Antibacterial activity against Staphylococcus aureus ATCC 29213 assessed as bacterial growth inhibition incubated for 16 to 18 hrs by broth microdilution method

Enterococcus = assay: Antibacterial activity against Enterococcus NR 31884 assessed as bacterial growth inhibition incubated for 16 to 18 hrs by broth microdilution method; assay type: functional; conditions: time 16-18 hrs
Escherichia coli [2] = assay: Antibacterial activity against Escherichia coli ATCC 25922 assessed as bacterial growth inhibition incubated for 16 to 18 hrs by broth microdilution method; assay type: functional; conditions: time 16-18 hrs
Acinetobacter baumannii [3] = assay: Antibacterial activity against Acinetobacter baumannii BAA 1605 assessed as bacterial growth inhibition incubated for 16 to 18 hrs by broth microdilution method; assay type: functional; conditions: time 16-18 hrs
Pseudomonas aeruginosa = assay: Antibacterial activity against Pseudomonas aeruginosa ATCC 27853 assessed as bacterial growth inhibition incubated for 16 to 18 hrs by broth microdilution method; assay type: functional; conditions: time 16-18 hrs
Klebsiella pneumoniae = assay: Antibacterial activity against Klebsiella pneumoniae BAA-1705 assessed as bacterial growth inhibition incubated for 16 to 18 hrs by broth microdilution method; assay type: functional; conditions: time 16-18 hrs
Staphylococcus aureus [4] = assay: Antibiofilm activity against Staphylococcus aureus ATCC 29213 assessed as reduction in preformed bacterial biofilm at 1XMIC incubated for 24 hrs by crystal violet staining based microtiter plate reader assay; assay type: functional
Staphylococcus aureus [5] = assay: Antibiofilm activity against Staphylococcus aureus ATCC 29213 assessed as reduction in preformed bacterial biofilm at 10XMIC incubated for 24 hrs by crystal violet staining based microtiter plate reader assay; assay type: functional
Staphylococcus aureus [6] = assay: Bactericidal activity against Staphylococcus aureus ATCC 29213 assessed as reduction in bacterial load at 1X MIC preincubated for 6 hrs followed by subculturing on TSA plate for 18 to 20 hrs by time-kill assay; assay type: functional; conditions: time 24-26 hrs
Staphylococcus aureus [7] = assay: Antibacterial activity against Staphylococcus aureus ATCC 29213 assessed as time for post-antibiotic effect at 1XMIC incubated for 1 hr followed by drug wash-out and measured every single 1 hr; assay type: functional
Escherichia coli [8] = assay: Antibacterial activity against Escherichia coli ATCC 25922 assessed as bacterial growth inhibition in presence of outermembrane permeabilizer, PMBN incubated for 16 to 18 hrs by broth microdilution method; assay type: functional; conditions: time 16-18 hrs
Staphylococcus aureus [9] = assay: Antibacterial activity against Staphylococcus aureus ATCC 29213 assessed as time for post-antibiotic effect at 10XMIC incubated for 1 hr followed by drug wash-out and measured every single 1 hr; assay type: functional
Acinetobacter baumannii [10] = assay: Antibacterial activity against Acinetobacter baumannii BAA-1605 ssessed as bacterial growth inhibition in presence of outermembrane permeabilizer, PMBN incubated for 16 to 18 hrs by broth microdilution method; assay type: functional; conditions: time 16-18 hrs
Staphylococcus aureus [11] = assay: Antibacterial activity against Staphylococcus aureus ATCC 29213 assessed as time for increase by 1 log10CFU at 10XMIC incubated for 1 hr followed by drug wash-out and measured every single 1 hr; assay type: functional
Staphylococcus aureus [12] = assay: Antibacterial activity against Staphylococcus aureus ATCC 29213 infected in mouse J774.A1 assessed as reduction in intracellular bacterial burden at 5XMIC incubated for 24 hrs followed by replating on TSA plate for 24 hrs by intracellular killing assay; assay type: functional; conditions: time 48.0 hrs
Staphylococcus aureus [13] = assay: Antibacterial activity against Staphylococcus aureus ATCC 29213 assessed as time for increase by 1 log10CFU at 1XMIC incubated for 1 hr followed by drug wash-out and measured every single 1 hr; assay type: functional
Staphylococcus aureus [14] = assay: Antibacterial activity against Staphylococcus aureus ATCC 29213 assessed as reduction in bacterial growth at sub-MIC incubated for 25 days; assay type: functional, organism-based; conditions: time 25.0 day

Row | SMILES | MIC (Staphylococcus aureus [1]) [µg/mL] | MIC (Enterococcus) [µg/mL] | MIC (Escherichia coli [2]) [µg/mL] | MIC (Acinetobacter baumannii [3]) [µg/mL] | MIC (Pseudomonas aeruginosa) [µg/mL] | MIC (Klebsiella pneumoniae) [µg/mL] | other results
1 | COc1cc2oc3c(c(=O)c2c(O)c1/C=C/C(C)C)C(C=C(C)C)Oc1cc(O)ccc1-3 (stereo not drawn) | > 64 | > 64 | > 64 | > 64 | > 64 | > 64 | –
2 | C[C@@H](O)[C@H]1C(=O)N2C(C(=O)O)=C(S[C@@H]3CN[C@H](C(=O)N(C)C)C3)[C@H](C)[C@H]12 [MEROPENEM] | 1 (≈ 2.61 µM) | – | – | – | – | – | –
3 | CN(C)c1ccc(O)c2c1C[C@H]1C[C@H]3[C@H](N(C)C)C(O)=C(C(N)=O)C(=O)[C@@]3(O)C(O)=C1C2=O [MINOCYCLINE] | 0.25 (≈ 0.546 µM) | – | – | – | – | – | –
4 | CC(C)(O/N=C(\C(=O)N[C@@H]1C(=O)N2C(C(=O)[O-])=C(C[n+]3ccccc3)CS[C@H]12)c1csc(N)n1)C(=O)O [CEFTAZIDIME] | 16 (≈ 29.3 µM) | – | – | – | – | – | –
5 | CN[C@H](CC(C)C)C(=O)N[C@H]1C(=O)N[C@@H](CC(N)=O)C(=O)N[C@H]2C(=O)N[C@H]3C(=O)N[C@H](C(=O)N[C@H](C(=O)O)c4cc(O)cc(O)c4-c4cc3ccc4O)[C@H](O)c3ccc(c(Cl)c3)Oc3cc2cc(c3O[C@@H]2O[C@H](CO)[C@@H](O)[C@H](O)[C@H]2O[C@H]2C[C@](C)(N)[C@H](O)[C@H](C)O2)Oc2ccc(cc2Cl)[C@H]1O [VANCOMYCIN] | – | – | 512 (≈ 353 µM) | 256 (≈ 177 µM) | – | – | Activity (Staphylococcus aureus [4]): inactive; inhibition (INH) (Staphylococcus aureus [5]): 7.7%; Activity (Staphylococcus aureus [6]): 1 log10CFU/ml; Time (Staphylococcus aureus [7]): 1 h; MIC (Escherichia coli [8]): 128 µg/mL; Time (Staphylococcus aureus [9]): 1.5 h; MIC (Acinetobacter baumannii [10]): 64 µg/mL; Time (Staphylococcus aureus [11]): 3.5 h; Activity (Staphylococcus aureus [12]): inactive; Time (Staphylococcus aureus [13]): 3 h
6 | CC(C)=CC1Oc2cc(O)ccc2-c2oc3cc4c(c(O)c3c(=O)c21)C=CC(C)(C)O4 (stereo not drawn) [CUDRAFLAVONE A] | > 64 | > 64 | > 64 | > 64 | > 64 | > 64 | –
7 | Oc1cc(O)cc(/C=C/c2ccc(O)cc2O)c1 [OXYRESVERATROL] | > 64 | > 64 | > 64 | > 64 | > 64 | > 64 | –
8 | CO[C@H]1/C=C/O[C@@]2(C)Oc3c(C)c(O)c4c(O)c(c(/C=N/N5CCN(C)CC5)c(O)c4c3C2=O)NC(=O)/C(C)=C\C=C\[C@H](C)[C@H](O)[C@@H](C)[C@@H](O)[C@@H](C)[C@H](OC(C)=O)[C@@H]1C [RIFAMPIN] | 0.0078 (≈ 0.00948 µM) | – | 8 (≈ 9.72 µM) | 2 (≈ 2.43 µM) | – | – | MIC (Escherichia coli [8]): 0.06 µg/mL; MIC (Acinetobacter baumannii [10]): 0.03 µg/mL
9 | CCCCCCCCCC(=O)N[C@@H](Cc1c[nH]c2ccccc12)C(=O)N[C@H](CC(N)=O)C(=O)N[C@@H](CC(=O)O)C(=O)N[C@@H]1C(=O)NCC(=O)N[C@@H](CCCN)C(=O)N[C@@H](CC(=O)O)C(=O)N[C@H](C)C(=O)N[C@@H](CC(=O)O)C(=O)NCC(=O)N[C@H](CO)C(=O)N[C@@H]([C@H](C)CC(=O)O)C(=O)N[C@@H](CC(=O)c2ccccc2N)C(=O)O[C@@H]1C | 1 (≈ 0.617 µM) | – | – | – | – | – | –
10 | C[C@H]1COc2c(N3CCN(C)CC3)c(F)cc3c(=O)c(C(=O)O)cn1c23.C[C@H]1COc2c(N3CCN(C)CC3)c(F)cc3c(=O)c(C(=O)O)cn1c23.O [LEVOFLOXACIN] | 0.125 | 0.25 | – | – | 0.5 | 64 | Time (Staphylococcus aureus [7]): 0.5 h; Time (Staphylococcus aureus [9]): 1 h; Activity (Staphylococcus aureus [14]): inactive; Time (Staphylococcus aureus [11]): 3 h; Time (Staphylococcus aureus [13]): 2.5 h
